Source: US10953051B2, “Methods and means for protecting the skin against pathogenic microorganisms” (Novozymes A/S, priority 2005, dated 2021)
Positions of bridges follow the written chain, without caps; N, C: chain ends. Non-standard residues stand in square brackets, D forms with d. Residues, ends and D or L forms follow the SMILES beside them. *: point of attachment. Ileψ(thiazoline)Cys = CC[C@H](C)[C@H](N)C1=N[C@H](C(=O)*)CS1; dOrn = NCCC[C@@H](N)C(=O)O

How the values were obtained:
resident flora = details: infants, after treatment with the antibiotic (Brook, 2000); cited from earlier work
[1] = test system: Staphylococcus aureus (DSM346); assay: in-vitro-hole plate assay, growth inhibition of S. aureus in comparison to bacitracin and erythromycin; type: cell-based; details: pre-cutted holes, BHI plates; antibiotics at different concentrations, defined numbers of Lactobacillus cells
Method: The term “microorganisms of the pathogenic transient micro flora” has been described herein above. Preferably, the term relates to Staphylococcus aureus. […] This effect has been compared to commercial antibiotic cream preparations of bacitracin and erythromycin. […] The diameter of the inhibition zones has been measured and the area of inhibition has been calculated thereof. […] Lactic acid bacteria were cultivated (OB-LB-Sa3; DSM 18006) from a −80° C. freezing culture in 1 ml MRS broth in eppendorf tubes. Tubes were closed and cultivated for 2 days at 37° C. 10 μl of this pre culture was transferred to the main culture consisting of 7 ml MRS broth in falcon tubes. The culture was incubated for 2 days. After cultivation cells were harvested by centrifugation (15 min, 4000×g). The cell pellet was washed two times with K/Na-buffer (each 1 ml). Cells were resuspended in 200 μl K/Na buffer. The indicator strain was Staphylococcus aureus (DSM346). 20 ml BHI broth in a shaking glass flask were inoculated with 15 μl of a 24 h pre culture. The indicator strain was cultivated for 24 h at 37° C. An aliquot was diluted to an optical density OD595 nm of 0.025-0.05 in BHI-broth and 800 μl spread on indicator plates (BHI). The agar was stamped using a cork borer. The holes were filled with 5 μl or 10 μl of the pre cultured lactic acid bacteria or corresponding volumes of commercial antibiotic preparations.

Which “repression of the resident flora” value (resident flora) does the source give for `CC1(C)S[C@@H]2[C@H](NC(=O)[C@H](N)c3ccc(O)cc3)C(=O)N2[C@H]1C(=O)O` [amoxicillin] here?
Its value is “about 50%”.

With `CC[C@H](C)[C@H](N)C1=N[C@H](C(=O)N[C@@H](CC(C)C)C(=O)N[C@H](CCC(=O)O)C(=O)N[C@H](C(=O)N[C@H]2CCCCNC(=O)[C@H](CC(N)=O)NC(=O)[C@@H](CC(=O)O)NC(=O)[C@H](Cc3cnc[nH]3)NC(=O)[C@@H](Cc3ccccc3)NC(=O)[C@H]([C@@H](C)CC)NC(=O)[C@@H](CCCN)NC2=O)[C@@H](C)CC)CS1` [bacitracin] ({Ileψ(thiazoline)Cys}-L[dE]IK[dOrn]I[dF]H[dD]N; lactam 4-C) as the compound, how does the “growth inhibition of S. aureus (inhibition zone, area of inhibition)” value (“growth inhibition of S. aureus” below) [1] read?
Its value is “growth inhibition”.

Which “growth inhibition of S. aureus” value [1] does the source give for `CC[C@H]1OC(=O)[C@H](C)[C@@H](O[C@H]2C[C@@](C)(OC)[C@@H](O)[C@H](C)O2)[C@H](C)[C@@H](O[C@@H]2O[C@H](C)C[C@H](N(C)C)[C@H]2O)[C@](C)(O)C[C@@H](C)C(=O)[C@H](C)[C@@H](O)[C@]1(C)O` [erythromycin] here?
The value was “growth inhibition”.

With “Lactobacillus delbrückii ssp. delbrückii OB-LB-Sa3” as the compound, how does the “growth inhibition of S. aureus” value [1] read?
Its value is “growth inhibition”.
